# Reference: PubChem BioAssay (NCI)
#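 1) Cells in 96-well plates. 2) Compound, 48 h, 5 concentrations. 3) Linear interpolation between surrounding doses. 4) Unreached endpoint = highest concentration. At the TGI there is no net growth.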
# Legend:
# Experiment in all cases: NCI tumour cell line growth inhibition, 48 h
# ACHN renal = test system: ACHN renal
# CCRF-CEM leukemia = test system: CCRF-CEM leukemia
# COLO 205 colon = test system: COLO 205 colon
# DMS 114 small cell lung = test system: DMS 114 small cell lung
# HCT-116 colon = test system: HCT-116 colon
# HL-60(TB) leukemia = test system: HL-60(TB) leukemia
# HOP-62 NSCLC = test system: HOP-62 NSCLC
# HOP-92 NSCLC = test system: HOP-92 NSCLC
# HT29 colon = test system: HT29 colon
# IGROV1 ovarian = test system: IGROV1 ovarian
# K-562 leukemia = test system: K-562 leukemia
# KM12 colon = test system: KM12 colon
# LXFL 529 NSCLC = test system: LXFL 529 NSCLC
# M14 melanoma = test system: M14 melanoma
# M19-MEL melanoma = test system: M19-MEL melanoma
# MALME-3M melanoma = test system: MALME-3M melanoma
# MOLT-4 leukemia = test system: MOLT-4 leukemia
# NCI-H23 lung = test system: NCI-H23 lung
# NCI-H460 lung = test system: NCI-H460 lung
# NCI-H522 lung = test system: NCI-H522 lung
# OVCAR-3 ovarian = test system: OVCAR-3 ovarian
# OVCAR-4 ovarian = test system: OVCAR-4 ovarian
# OVCAR-5 ovarian = test system: OVCAR-5 ovarian
# RPMI-8226 leukemia = test system: RPMI-8226 leukemia
# RXF 393 renal = test system: RXF 393 renal
# SF-268 CNS = test system: SF-268 CNS
# SF-295 CNS = test system: SF-295 CNS
# SF-539 CNS = test system: SF-539 CNS
# SK-MEL-2 melanoma = test system: SK-MEL-2 melanoma
# SK-MEL-28 melanoma = test system: SK-MEL-28 melanoma
# SK-OV-3 ovarian = test system: SK-OV-3 ovarian
# SNB-19 CNS = test system: SNB-19 CNS
# SNB-75 CNS = test system: SNB-75 CNS
# SNB-78 CNS = test system: SNB-78 CNS
# SR leukemia = test system: SR leukemia
# U251 CNS = test system: U251 CNS
# UACC-257 melanoma = test system: UACC-257 melanoma
# UACC-62 melanoma = test system: UACC-62 melanoma
# UO-31 renal = test system: UO-31 renal
# 786-0 renal = test system: 786-0 renal
# A498 renal = test system: A498 renal
# A549 NSCLC = test system: A549 NSCLC
# CAKI-1 renal = test system: CAKI-1 renal
# DLD-1 colon = test system: DLD-1 colon
# DMS 273 small cell lung = test system: DMS 273 small cell lung
# EKVX NSCLC = test system: EKVX NSCLC
# HCC-2998 colon = test system: HCC-2998 colon
# HCT-15 colon = test system: HCT-15 colon
# KM20L2 colon = test system: KM20L2 colon
# LOX IMVI melanoma = test system: LOX IMVI melanoma
# NCI-H226 lung = test system: NCI-H226 lung
# OVCAR-8 ovarian = test system: OVCAR-8 ovarian
# SK-MEL-5 melanoma = test system: SK-MEL-5 melanoma
# SN12C renal = test system: SN12C renal
# SW-620 colon = test system: SW-620 colon
# TK-10 renal = test system: TK-10 renal
structure (smiles),measurement,setting,value
Cc1c(-c2c(C)c(=O)c3c(C(C)C)c(=O)c(=O)c(C=O)c-3c2=O)c(O)c2c(C=O)c(O)c(O)c(C(C)C)c2c1O,TGI,ACHN renal,10.3 µM
same,TGI,CCRF-CEM leukemia,5.07 µM
same,TGI,COLO 205 colon,11.8 µM
same,TGI,DMS 114 small cell lung,5.82 µM
same,TGI,HCT-116 colon,7.81 µM
same,TGI,HL-60(TB) leukemia,11.1 µM
same,TGI,HOP-62 NSCLC,14.3 µM
same,TGI,HOP-92 NSCLC,7.49 µM
same,TGI,HT29 colon,4.87 µM
same,TGI,IGROV1 ovarian,11.3 µM
same,TGI,K-562 leukemia,10.7 µM
same,TGI,KM12 colon,4.9 µM
same,TGI,LXFL 529 NSCLC,12.8 µM
same,TGI,M14 melanoma,4.24 µM
same,TGI,M19-MEL melanoma,15.4 µM
same,TGI,MALME-3M melanoma,15.2 µM
same,TGI,MOLT-4 leukemia,11.3 µM
same,TGI,NCI-H23 lung,10.5 µM
same,TGI,NCI-H460 lung,11.8 µM
same,TGI,NCI-H522 lung,15.7 µM
same,TGI,OVCAR-3 ovarian,7.02 µM
same,TGI,OVCAR-4 ovarian,12 µM
same,TGI,OVCAR-5 ovarian,7.82 µM
same,TGI,RPMI-8226 leukemia,9.9 µM
same,TGI,RXF 393 renal,6.99 µM
same,TGI,SF-268 CNS,18.8 µM
same,TGI,SF-295 CNS,3.94 µM
same,TGI,SF-539 CNS,8.87 µM
same,TGI,SK-MEL-2 melanoma,3.68 µM
same,TGI,SK-MEL-28 melanoma,16.4 µM
same,TGI,SK-OV-3 ovarian,13 µM
same,TGI,SNB-19 CNS,17.6 µM
same,TGI,SNB-75 CNS,26.2 µM
same,TGI,SNB-78 CNS,6.78 µM
same,TGI,SR leukemia,17.1 µM
same,TGI,U251 CNS,11.3 µM
same,TGI,UACC-257 melanoma,13.6 µM
same,TGI,UACC-62 melanoma,8.14 µM
same,TGI,UO-31 renal,5.5 µM
Cc1ccc(S(=O)(=O)N(/N=C/C=C/c2ccccc2)c2nnc(-c3ccccc3)c(-c3ccccc3)n2)cc1,TGI,786-0 renal,74.3 µM
same,TGI,A498 renal,> 100 µM
same,TGI,A549 NSCLC,94.4 µM
same,TGI,ACHN renal,> 100 µM
same,TGI,CAKI-1 renal,57 µM
same,TGI,CCRF-CEM leukemia,> 100 µM
same,TGI,COLO 205 colon,36.1 µM
same,TGI,DLD-1 colon,> 100 µM
same,TGI,DMS 114 small cell lung,54.1 µM
same,TGI,DMS 273 small cell lung,66.9 µM
same,TGI,EKVX NSCLC,> 100 µM
same,TGI,HCC-2998 colon,29.5 µM
same,TGI,HCT-15 colon,> 100 µM
same,TGI,HL-60(TB) leukemia,50.4 µM
same,TGI,HOP-62 NSCLC,48.9 µM
same,TGI,HOP-92 NSCLC,47.4 µM
same,TGI,HT29 colon,23 µM
same,TGI,IGROV1 ovarian,> 100 µM
same,TGI,K-562 leukemia,80 µM
same,TGI,KM12 colon,> 100 µM
same,TGI,KM20L2 colon,40.5 µM
same,TGI,LOX IMVI melanoma,51.3 µM
same,TGI,M14 melanoma,49.4 µM
same,TGI,M19-MEL melanoma,78.3 µM
same,TGI,MALME-3M melanoma,> 100 µM
same,TGI,MOLT-4 leukemia,76.5 µM
same,TGI,NCI-H226 lung,55.6 µM
same,TGI,NCI-H23 lung,66.8 µM
same,TGI,NCI-H460 lung,> 100 µM
same,TGI,NCI-H522 lung,51.9 µM
same,TGI,OVCAR-3 ovarian,88.6 µM
same,TGI,OVCAR-4 ovarian,> 100 µM
same,TGI,OVCAR-5 ovarian,> 100 µM
same,TGI,OVCAR-8 ovarian,> 100 µM
same,TGI,RPMI-8226 leukemia,40.3 µM
same,TGI,RXF 393 renal,60.7 µM
same,TGI,SF-268 CNS,96.9 µM
same,TGI,SF-295 CNS,64.3 µM
same,TGI,SF-539 CNS,33 µM
same,TGI,SK-MEL-2 melanoma,47.8 µM
same,TGI,SK-MEL-28 melanoma,78.4 µM
same,TGI,SK-MEL-5 melanoma,35.1 µM
same,TGI,SK-OV-3 ovarian,75.1 µM
same,TGI,SN12C renal,> 100 µM
same,TGI,SNB-19 CNS,> 100 µM
same,TGI,SNB-75 CNS,69 µM
same,TGI,SNB-78 CNS,> 100 µM
same,TGI,SW-620 colon,> 100 µM
same,TGI,TK-10 renal,76.9 µM
same,TGI,U251 CNS,> 100 µM
same,TGI,UACC-257 melanoma,98.7 µM
same,TGI,UACC-62 melanoma,> 100 µM
same,TGI,UO-31 renal,23.4 µM
c1ccc2nc(-c3ccc4c(c3)OCO4)ccc2c1,TGI,786-0 renal,> 100 µM
same,TGI,A549 NSCLC,> 100 µM
same,TGI,ACHN renal,> 100 µM
same,TGI,CAKI-1 renal,> 100 µM
same,TGI,COLO 205 colon,> 100 µM
same,TGI,DMS 114 small cell lung,67.5 µM
same,TGI,DMS 273 small cell lung,62.8 µM
same,TGI,EKVX NSCLC,> 100 µM
same,TGI,HCC-2998 colon,> 100 µM
same,TGI,HL-60(TB) leukemia,> 100 µM
same,TGI,HOP-62 NSCLC,79.5 µM
same,TGI,HOP-92 NSCLC,19 µM
same,TGI,HT29 colon,79.7 µM
same,TGI,KM12 colon,> 100 µM
same,TGI,KM20L2 colon,> 100 µM
same,TGI,LOX IMVI melanoma,82.7 µM
same,TGI,LXFL 529 NSCLC,> 100 µM
same,TGI,M14 melanoma,> 100 µM
same,TGI,MALME-3M melanoma,68 µM
same,TGI,NCI-H226 lung,97.6 µM
same,TGI,NCI-H23 lung,> 100 µM
same,TGI,NCI-H460 lung,> 100 µM
same,TGI,NCI-H522 lung,> 100 µM
same,TGI,OVCAR-3 ovarian,71.1 µM
same,TGI,OVCAR-4 ovarian,> 100 µM
same,TGI,OVCAR-5 ovarian,> 100 µM
same,TGI,OVCAR-8 ovarian,> 100 µM
same,TGI,RXF 393 renal,58.9 µM
same,TGI,SF-268 CNS,> 100 µM
same,TGI,SF-295 CNS,> 100 µM
same,TGI,SF-539 CNS,> 100 µM
same,TGI,SK-MEL-2 melanoma,> 100 µM
same,TGI,SK-MEL-28 melanoma,> 100 µM
same,TGI,SN12C renal,> 100 µM
same,TGI,SNB-19 CNS,> 100 µM
same,TGI,SNB-75 CNS,> 100 µM
same,TGI,SNB-78 CNS,> 100 µM
same,TGI,SR leukemia,43.9 µM
same,TGI,SW-620 colon,> 100 µM
same,TGI,TK-10 renal,> 100 µM
same,TGI,U251 CNS,> 100 µM
same,TGI,UACC-257 melanoma,48.7 µM
same,TGI,UO-31 renal,93.3 µM
